Measured values from patent US20220160664A1, “TAZ ACTIVATORS AND WNT AGONISTS FOR TREATING EAR DISORDERS” (Frequency Therapeutics, Inc., priority 2019, published 2022).

What was measured:
[1] = tested on: Lgr5 GFP(+) cochlear progenitor cells; assay: Lgr5+ Assay / Stem Cell Proliferation Assay: proliferation and enrichment of Lgr5 GFP(+) cochlear progenitor cells; format: cell-based
Excerpt: FIG. 1A is a graph depicting that the TAZ activator IBS008738 enhances Lgr5 GFP(+) progenitor cell proliferation when combined with CHIR in a background of growth factors. The y-axis depicts Lgr5 GFP(+) cell count and the x-axis depicts control conditions (background growth factors plus CHIR (EFI-C) or CHIR and VPA (EFI-CV)) versus CHIR+IBS008738 (EFI-C-IBS).
The y-axis depicts Lgr5 GFP(+) cell area and the x-axis depicts concentration of FHZ-000706.
FIG. 4A is a graph depicting that the TAZ activator FHZ-000706 enhances Lgr5 GFP(+) progenitor cell proliferation when combined with CHIR in a background of growth factors compared to CHIR alone.
The TAZ activator and the Wnt agonist (optionally in combination with an epigenetic agent) is capable of (i) forming a proliferation assay final cell population from a proliferation assay initial cell population over a proliferation assay time period in a stem cell proliferation assay, and/or (ii) forming a differentiation assay final cell population from a differentiation assay initial cell population over a differentiation assay time period in a Stem Cell differentiation assay wherein: (a) the proliferation assay initial cell population has (i) a Proliferation assay initial number of total cells, (ii) a proliferation assay initial number of Lgr5+ cells, (iii) a proliferation assay initial number of hair cells, (iv) a proliferation assay initial Lgr5+ cell fraction that equals the ratio of the proliferation assay initial number of Lgr5+ cells to the proliferation assay initial number of total cells, and (v) a proliferation assay initial hair cell fraction that equals the ratio of the proliferation assay initial number of hair cells to the proliferation assay initial number of total cells; (b) the proliferation assay final cell population has (i) a proliferation assay final number of total cells, (ii) a proliferation assay final number of Lgr5+ cells, (iii) a proliferation assay final number of hair cells, (iv) a proliferation assay final Lgr5+ cell fraction that equals the ratio of the proliferation assay final number of Lgr5+ cells to the proliferation assay final number of total cells and (v) a proliferation assay final hair cell fraction that equals the ratio of the proliferation assay final number of hair cells to the proliferation assay final number of total cells; (c) the differentiation assay initial cell population has (i) a differentiation assay initial number of total cells, (ii) a differentiation assay initial number of Lgr5+ cells, (iii) a differentiation assay initial number of hair cells, (iv) a differentiation assay initial Lgr5+ cell fraction that equals the ratio of the differentiation assay initial number of Lgr5+ cells to the differentiation assay initial number of total cells, and (v) a differentiation assay initial hair cell fraction that equals the ratio of the differentiation assay initial number of hair cells to the differentiation assay initial number of total cells; (d) the differentiation assay final cell population has (i) a differentiation assay final number of total cells, (ii) a differentiation assay final number of Lgr5+ cells, (iii) a differentiation assay final number of hair cells, (iv) a differentiation assay final Lgr5+ cell fraction that equals the ratio of the differentiation assay final number of Lgr5+ cells to the differentiation assay final number of total cells, and (v) a differentiation assay final hair cell fraction that equals the ratio of the differentiation assay final number of hair cells to the differentiation assay final number of total cells; (e) the proliferation assay final number of Lgr5+ cells exceeds the proliferation assay initial number of Lgr5+ cells by a factor of at least 10; and/or (f) the differentiation assay final number of hair cells is a non-zero number.

[2] = target: DOT1L (Homo sapiens, UniProt Q8TEK3); conditions: DOT1L inhibitors, Table 8; cited from earlier work
Chain of DOT1L (Q8TEK3 whole entry, species assumed): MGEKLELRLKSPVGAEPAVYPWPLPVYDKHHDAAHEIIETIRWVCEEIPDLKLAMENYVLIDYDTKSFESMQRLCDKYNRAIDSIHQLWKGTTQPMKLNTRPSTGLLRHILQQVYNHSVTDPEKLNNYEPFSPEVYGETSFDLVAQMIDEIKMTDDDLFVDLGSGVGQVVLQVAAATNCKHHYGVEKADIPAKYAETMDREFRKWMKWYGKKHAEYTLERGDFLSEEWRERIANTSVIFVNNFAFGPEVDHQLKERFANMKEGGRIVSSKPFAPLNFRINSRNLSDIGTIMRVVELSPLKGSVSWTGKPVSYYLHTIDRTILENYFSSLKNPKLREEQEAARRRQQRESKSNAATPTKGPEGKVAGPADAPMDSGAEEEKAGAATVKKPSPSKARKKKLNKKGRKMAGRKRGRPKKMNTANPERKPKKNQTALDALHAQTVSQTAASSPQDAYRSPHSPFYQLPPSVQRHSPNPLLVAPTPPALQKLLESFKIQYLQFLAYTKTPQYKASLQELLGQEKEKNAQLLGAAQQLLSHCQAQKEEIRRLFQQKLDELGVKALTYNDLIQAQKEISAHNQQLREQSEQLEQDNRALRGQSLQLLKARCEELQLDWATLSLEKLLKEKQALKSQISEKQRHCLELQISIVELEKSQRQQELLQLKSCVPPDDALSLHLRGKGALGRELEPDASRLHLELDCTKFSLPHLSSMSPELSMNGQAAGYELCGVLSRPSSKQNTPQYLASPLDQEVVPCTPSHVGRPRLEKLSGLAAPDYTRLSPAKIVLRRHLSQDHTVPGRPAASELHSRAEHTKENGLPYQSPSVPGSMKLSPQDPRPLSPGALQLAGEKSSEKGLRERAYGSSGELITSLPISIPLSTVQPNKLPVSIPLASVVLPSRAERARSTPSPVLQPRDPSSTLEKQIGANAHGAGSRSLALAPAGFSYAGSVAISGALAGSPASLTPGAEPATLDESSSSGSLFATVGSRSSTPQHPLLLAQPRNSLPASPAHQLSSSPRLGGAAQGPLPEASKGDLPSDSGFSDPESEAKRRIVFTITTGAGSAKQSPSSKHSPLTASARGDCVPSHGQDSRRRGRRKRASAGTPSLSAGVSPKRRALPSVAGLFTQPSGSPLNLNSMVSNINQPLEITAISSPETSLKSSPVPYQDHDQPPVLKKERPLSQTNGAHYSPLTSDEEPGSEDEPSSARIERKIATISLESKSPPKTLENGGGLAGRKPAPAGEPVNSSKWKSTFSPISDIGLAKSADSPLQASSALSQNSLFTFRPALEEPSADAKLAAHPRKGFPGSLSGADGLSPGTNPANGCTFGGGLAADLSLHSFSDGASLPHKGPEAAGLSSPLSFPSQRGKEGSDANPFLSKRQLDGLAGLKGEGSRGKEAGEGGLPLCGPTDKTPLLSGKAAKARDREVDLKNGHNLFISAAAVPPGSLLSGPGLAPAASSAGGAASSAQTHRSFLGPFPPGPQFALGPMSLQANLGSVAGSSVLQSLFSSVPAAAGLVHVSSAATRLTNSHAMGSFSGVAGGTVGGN

[3] = cited from earlier work; for Human In Vivo Conc: Table 8
[4] = tested on: cochlear progenitor cells (Lgr5+); assay: Lgr5 cell expansion: quantification of cell proliferation, expansion and enrichment (flow cytometry / Celigo imaging); format: cell-based, mice; conditions: for enrichment of Lgr5+ progenitor cells / proliferation of Lgr5+ progenitor cells: TAZ activator 10 μM combined with Wnt agonist CHIR99021 (4 μM)
Description: Neonatal Lgr5-EGFP-IRES-Cre-ER mice (The Jackson Laboratory, strain 8875) were used to analyze the effects of small molecules on cochlear stem cell expansion (see Barker et al., Nature 449, 1003-7 (2007). This strain allowed for visualization and quantification of EGFP cells.
All animal studies were conducted under an approved institutional protocol per National Institutes of Health guidelines. Using neonatal animals, cochleae were dissected and the organ of Corti (sensory epithelium) was separated from the stria vascularis (ion transport epithelium) and the modiolus (nerve tissue). Epithelia were then collected and treated with TrypLE for 15-20 minutes to obtain single cells. The cells were then filtered ([…]) and suspended in a Matrigel (Corning) dome for 3D culture seeded at 0.5 cochlea per well.
Expansion of Lgr5 Cells: Cells were cultured in a 3D system and bathed in a serum free 1:1 mixture of DMEM and F12, supplemented with Glutamax (GIBCO), N2, B27 (Invitrogen), EGF (50 ng/mL; Chemicon), bFGF (50 ng/mL; Chemicon), IGF-1 (50 ng/mL; Chemicon), and small molecules for seven days. Media was changed every other day. Treatments were run in triplicate or quadruplicate.
Quantification of Cell Proliferation: Lgr5 cells were quantified after 7-10 days. Cell colonies were dissociated into single cells using TrypLE. The cells were then stained with propidium iodide (PI) and analyzed using a flow cytometer to count Lgr5-EGFP cells. The percentage of viable Lgr5 cells was plotted against the concentration in GraphPad Prism.
Organ of Corti are dissected from Lgr5 GFP(+) mice and dissociated as single cells as described above. Background media contains the same supplements and growth factors at the same concentrations as described above. Assays for image quantification are run in 96 well black plates with clear bottom with cells embedded in 50% Matrigel at cell density of 500 k cells/mL with 50 uL applied to each well. Cells are cultured for 7 days, with media change every 3-4 days. After 7 days of exposure to experimental conditions (e.g. small molecules), media is then removed from culture and replaced with media containing Hoescht at a 1:2000 dilution for a final concentration of 5 ug/mL (200 uL/well). The plate is then placed in a cell culture incubator at 37C for 1 hr. The media containing Hoescht is then removed and 200 uL/well of Cell Recovery Solution is added. The plate is then incubated on a plastic-wrapped (e.g. Saran wrap) CoolRack™ on ice for 80 minutes. Next, the plate is centrifuged for 5 minutes at 2300 RPMs (Beckman Coulter Allegra 6R centrifuge; GH 3.8A plate rotor; ambient temperature). Cells are then imaged on Celigo using 3 channels for brightfield, blue (Hoescht), and green (Lgr5 GFP). Proliferated cell colonies are captured as summed objects in the blue channel and the green channel. The green Lgr5 GFP(+) cell colonies are quantified for total GFP(+) cell area, while the blue hoescht stained colonies are quantified as total cell area. The % GFP(+) Cell Area is calculated using the total GFP(+) cell area divided by the total cell area multiplied by 100. All results are compiled and utilized to determine the effects of experimental conditions (e.g. small molecules) on the expansion and enrichment of the Lgr5 cell population.

[5] = target: T1, KDM1b (Homo sapiens, UniProt Q8NB78); conditions: Table 9; read-out: Select KDM1b; cited from earlier work
T1 sequence (Q8NB78 1-822): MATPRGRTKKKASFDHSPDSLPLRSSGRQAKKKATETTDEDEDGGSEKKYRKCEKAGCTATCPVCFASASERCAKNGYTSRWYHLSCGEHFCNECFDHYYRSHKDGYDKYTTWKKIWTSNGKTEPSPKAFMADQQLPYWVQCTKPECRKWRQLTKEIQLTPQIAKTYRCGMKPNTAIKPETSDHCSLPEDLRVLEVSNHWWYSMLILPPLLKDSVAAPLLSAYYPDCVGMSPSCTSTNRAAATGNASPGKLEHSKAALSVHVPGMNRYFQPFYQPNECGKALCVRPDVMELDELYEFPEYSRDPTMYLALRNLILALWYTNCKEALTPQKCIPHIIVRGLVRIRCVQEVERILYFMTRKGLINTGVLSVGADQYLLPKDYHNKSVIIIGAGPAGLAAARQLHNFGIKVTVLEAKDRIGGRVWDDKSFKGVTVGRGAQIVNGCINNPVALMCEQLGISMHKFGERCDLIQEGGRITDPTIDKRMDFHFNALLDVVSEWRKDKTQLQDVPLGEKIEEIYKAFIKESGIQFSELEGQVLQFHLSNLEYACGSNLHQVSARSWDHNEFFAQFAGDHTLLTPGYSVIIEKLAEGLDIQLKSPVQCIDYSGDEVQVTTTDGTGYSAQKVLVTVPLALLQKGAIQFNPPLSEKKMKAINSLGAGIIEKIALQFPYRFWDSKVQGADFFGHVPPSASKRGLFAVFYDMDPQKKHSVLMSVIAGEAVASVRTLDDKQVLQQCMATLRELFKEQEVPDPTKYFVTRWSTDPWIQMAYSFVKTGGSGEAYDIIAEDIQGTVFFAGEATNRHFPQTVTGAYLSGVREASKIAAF

[6] = target: GSK-3 alpha (Homo sapiens, UniProt P49840); conditions: Table 2; kind of potency not given; cited from earlier work
Chain of GSK-3 alpha (P49840 whole entry): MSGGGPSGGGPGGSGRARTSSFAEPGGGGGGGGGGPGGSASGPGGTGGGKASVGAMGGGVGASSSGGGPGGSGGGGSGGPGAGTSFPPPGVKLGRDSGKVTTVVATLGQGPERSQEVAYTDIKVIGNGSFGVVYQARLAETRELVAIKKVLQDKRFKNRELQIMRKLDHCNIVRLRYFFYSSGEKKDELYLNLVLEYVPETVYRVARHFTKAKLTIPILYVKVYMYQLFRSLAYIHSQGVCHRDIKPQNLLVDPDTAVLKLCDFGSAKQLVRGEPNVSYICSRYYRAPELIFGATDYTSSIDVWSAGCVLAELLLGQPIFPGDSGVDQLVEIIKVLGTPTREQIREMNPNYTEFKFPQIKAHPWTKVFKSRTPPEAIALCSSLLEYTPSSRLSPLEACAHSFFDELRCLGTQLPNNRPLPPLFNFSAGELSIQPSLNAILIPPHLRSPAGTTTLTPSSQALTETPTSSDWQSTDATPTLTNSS

[7] = target: TAZ (Homo sapiens, UniProt Q9GZV5); conditions: Table 1, TAZ activators, literature cell concentration; cited from earlier work
Chain of TAZ (Q9GZV5 whole entry): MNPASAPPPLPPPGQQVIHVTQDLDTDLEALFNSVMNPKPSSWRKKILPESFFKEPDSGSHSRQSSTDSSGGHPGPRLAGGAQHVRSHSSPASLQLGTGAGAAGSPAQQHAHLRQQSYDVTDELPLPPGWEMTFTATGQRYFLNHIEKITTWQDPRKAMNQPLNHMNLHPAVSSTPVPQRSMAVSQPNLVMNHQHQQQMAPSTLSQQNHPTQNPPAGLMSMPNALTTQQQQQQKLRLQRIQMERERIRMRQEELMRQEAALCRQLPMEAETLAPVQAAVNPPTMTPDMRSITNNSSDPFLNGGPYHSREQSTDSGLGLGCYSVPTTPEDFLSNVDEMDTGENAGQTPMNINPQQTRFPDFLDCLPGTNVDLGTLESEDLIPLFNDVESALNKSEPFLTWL

[8] = tested on: HDAC; conditions: cited from earlier work
[9] = 0-30 μM FHZ-000706 in a background of growth factors
[10] = 10 μM FHZ-000706 + 4 μM CHIR99021 in growth factors compared to CHIR alone
[11] = Table 1, TAZ activators, concentration range in the assay
[12] = TAZ activator alone, FIG. 3A, 3B
[13] = 10 μM IBS008738 combined with 4 μM CHIR99021 and 1 mM VPA in growth factors versus EFI-C or EFI-CV controls

For `CC(C)N(CCCNC(=O)Nc1ccc(C(C)(C)C)cc1)C[C@H]1O[C@@H](n2cc(Br)c3c(N)ncnc32)[C@H](O)[C@@H]1O` [SGC0946], the “Lgr5+ Assay” value ([1]; concentration range, Table 8) is listed as 0.6 to 5 µM, the “Lit Cell” value [2] is listed as 10 mM and the “Human In Vivo Conc” value [3] is listed as 0.1-5 μM uM.

For `CS(=O)(=O)c1ccc(-c2cnc(NCc3ccco3)n3cnnc23)cc1` [EED226, reference compound], the “Lgr5+ Assay” value ([1]; Table 7, result in words) was “Active”.

In the case of `Cc1ccc(-n2cnc(N)c2C(=O)c2ccccc2)cc1` [FHZ-000706], the “Lgr5 GFP(+) cell area (enrichment), FIG. 3B” value [1, 9] is reported as “does not enrich”, the “Lgr5 GFP(+) cell area (proliferation), FIG. 3A” value [1, 9] is reported as “does not proliferate” and the “Lgr5 GFP(+) cell area (proliferation), FIG. 4A” value [1, 10] is reported as “enhances”. For the same molecule, the “Lgr5 GFP(+) cell area percentage (enrichment), FIG. 4B” value [1, 10] was “enhances”, the “Lgr5+ Assay” value [1, 11] was 1 to 100 µM and the “enrichment of Lgr5+ progenitor cells” value [4] was “enriched”. The “proliferation of Lgr5+ progenitor cells” value [4] was “proliferate”, the “enrichment of cochlear progenitor cells” value [4, 12] was “does not promote” and the “proliferation of cochlear progenitor cells” value [4, 12] was “does not promote”.

For `O=C(O)c1ccc(CN2CCC(CN[C@@H]3C[C@H]3c3ccccc3)CC2)cc1` [GSK-2879552], the IC50 [5] is given as 20 µM.

For `N#Cc1ccc2[nH]c(O)c(-c3ccc(CN4CCOCC4)cn3)c2c1` [AZD 1080], the IC50 [6] is given as 0.0069 µM.

In the case of `CCCCc1nc2cc(-c3cccnc3)c(C)nc2n1Cc1ccc(-c2ccccc2-c2nn[nH]n2)cc1` [TM-25659], the “Lit Cell” value [7] is given as 10 to 100 µM.

In the case of `C=CCNc1nc(N)c(C(=O)c2ccc(F)s2)s1` [TT10], the “Lit Cell” value [7] is given as 1 µM.

In the case of `c1ccc([C@@H]2C[C@H]2NC2CCNCC2)cc1` [GSK-LSD1], the “Lgr5+ Assay” value ([1]; Table 9, with <= the upper end of a range printed over two lines) is reported as ≤ 50 µM.

In the case of `C=CCNc1nc(N)c(C(=O)c2ccc(Cl)s2)s1` [IBS008738, reference compound], the “Lgr5 GFP(+) cell count (progenitor cell proliferation), FIG. 1A” value ([1]; 10 μM IBS008738 + 4 μM CHIR99021 in growth factors (50 ng/mL EGF, bFGF, IGR1) versus EFI-C or EFI-CV controls) is reported as “enhances”, the “Lgr5 GFP(+) cell proliferation percentage (enrichment), FIG. 1B” value ([1]; 10 μM IBS008738 + 4 μM CHIR99021 in growth factors versus EFI-C or EFI-CV controls) is reported as “enhances” and the “Lgr5 GFP(+) cell count (progenitor cell proliferation), FIG. 2A” value [1, 13] is reported as “does not enhance”. The “Lgr5 GFP(+) cell proliferation percentage (enrichment), FIG. 2B” value [1, 13] was “enhances”, the “Lgr5+ Assay” value [1, 11] was 1.1 to 30 µM and the “enrichment of Lgr5+ progenitor cells” value [4] was “enriched”. The “proliferation of Lgr5+ progenitor cells” value [4] was “proliferate”.

In the case of `N[C@@H]1C[C@H]1c1ccccc1` [TCP], the Cmax ([3]; Table 9, in brackets under the ng/mL range, read-out: Human Plasma Conc.: Cmax) is listed as 225 to 1500 nM and the “Human Plasma Conc.: Cmax” value ([3]; Table 9) is listed as 30-200 ng/ml ng/mL.

With `CCCc1cc(C)[nH]c(=O)c1CNC(=O)c1cc(-c2ccc(N3CCN(C(C)C)CC3)nc2)cc2c1cnn2C(C)C` [UN C1999, reference compound] the “Lgr5+ Assay” value ([1]; Table 7, result in words) was “Active”.

In the case of `O=C1NC(=O)C(c2cnc3ccccn23)=C1c1cn2c3c(cc(F)cc13)CN(C(=O)N1CCCCC1)CC2` [LY2090314, 3-(9-fluoro-2-(piperidine-1-carbonyl)-1,2,3,4-tetrahydro-[1,4]diazepino[6,7,1-hi]indol-7-yl)-4-(imidazo[1,2-a]pyridin-3-yl)-1H-pyrrole-2,5-dione], the IC50 [6] is listed as 0.0021 µM.

In the case of `CC(C)N(C[C@H]1O[C@@H](n2cnc3c(N)ncnc32)[C@H](O)[C@@H]1O)[C@H]1C[C@@H](CCc2nc3cc(C(C)(C)C)ccc3[nH]2)C1` [pinometostat], the “Human In Vivo Conc: Total plasma Css” value ([3]; Table 8, in brackets under the ng/mL range) is given as “(1.42-2.94 uM)” and the “Human In Vivo Conc” value [3] is given as “(1-10 uM)”.

In the case of `O=C([O-])CCCc1ccccc1.[Na+]` [Na phenylbutyrate], the Class selectivity ([8]; Table 5, HDAC class) is listed as “Class I >” and the IC50 ([8]; Table 5, HDAC Inhib 1, 2, 3, 8, kind of potency not given, read-out: HDAC Potene) is listed as 9 to 16 µM.

In the case of `CC(C)N(CCCNC(=O)Nc1ccc(C(C)(C)C)cc1)C[C@H]1O[C@@H](n2ccc3c(N)ncnc32)[C@H](O)[C@@H]1O` [EPZ004777], the “Human In Vivo Conc” value [3] is given as 0.1 to 45 µM.
